Source: patent publication US20180296630A1, “METHODS AND COMPOSITIONS FOR PREVENTING OR TREATING OPHTHALMIC CONDITIONS” (Stealth BioTherapeutics Corp, priority 2012, published 2018)
Non-standard residues stand in square brackets, D forms with d. No end group written: not given here.

How the values were obtained:
[1] = system: several mammalian cell types; conditions: energy-independent manner; cited from earlier work
HFD/STZ diabetic rats = test: Lens opacity (cataract) in HFD/STZ rat model; assay type: in vivo, Sprague-Dawley rat; conditions: for Percentage of opacity / Percentage of severe opacity / Turbidity degree + (mildly opaque), number in group / Turbidity degree ++ (opaque), number in group / Turbidity degree +++ (moderately opaque), number in group / Turbidity degree ++++ (severely opaque), number in group / Turbidity degree − (transparent), number in group: HFD/STZ rat model
Protocol: (§1) A rat model of diabetes was established by combination of 6-week HFD and low dose of STZ (30 mg/kg) injection or a single high dose of STZ (65 mg/kg) in SD rats. See generally, K. Srinivasan, B. Viswanad, Lydia Asrat, C. L. Kaul and P. Ramarao, Combination of high-fat diet-fed and low-dose streptozotocin-treated rat: A model for type 2 diabetes and pharmacological screening, Pharmacological Research, 52(4): 313-320, 2005. Rats of the same batch fed with normal chow (NRC) were used as a control.

STZ diabetic rats = test: Lens opacity (cataract) in STZ rat model; assay type: in vivo, Sprague-Dawley rat; conditions: 10 mg (Table 11: 10 mg/kg s.c.)
Protocol: as §1

[2] = system: STZ and HFD/STZ diabetic rats; test: Inner blood-retinal barrier function (Evans blue extravasation) in diabetic SD rats; assay type: in vivo, Sprague-Dawley rat; conditions: compared to rats on a HFD not administered peptide
Protocol: FIGS. 10A and 10B are charts showing the integrity of the blood-retinal barrier of normal rats (NRC), diabetic rats, and diabetic rats treated with Phe-D-Arg-Phe-Lys-NH2 (SS-20) or D-Arg-2′,6′-Dmt-Lys-Phe-NH2(SS-31), as analyzed by Evans blue extravasation. (A) diabetes induced by STZ; (B) diabetes induced by HFD/STZ.
as §1
The effect of the aromatic-cationic peptides on the inner blood-retinal barrier function in the SD rat model was investigated.

## 2′,6′-Dmt-D-Arg-Phe-Lys-NH2
[1]
  penetration of the plasma membrane: readily penetrates

## F[dR]FK-NH2
HFD/STZ diabetic rats; HFD/STZ and STZ models (FIGS. 6 and 7, Tables 13 and 14)
  cataract formation in the lenses of diabetic rats: prevention or reversal of cataract formation
HFD/STZ diabetic rats; 3 mg (Table 9: 3 mg/kg s.c.)
  Percentage of opacity: 75.0%
  Percentage of severe opacity: 25.0%
  Turbidity degree + (mildly opaque), number in group: 1
  Turbidity degree ++ (opaque), number in group: 1
  Turbidity degree +++ (moderately opaque), number in group: 0
  Turbidity degree ++++ (severely opaque), number in group: 1
  Turbidity degree − (transparent), number in group: 1
HFD/STZ diabetic rats; 10 mg (Table 9: 10 mg/kg s.c.)
  Percentage of opacity: 75.0%
  Percentage of severe opacity: 0%
  Turbidity degree + (mildly opaque), number in group: 2
  Turbidity degree ++ (opaque), number in group: 1
  Turbidity degree +++ (moderately opaque), number in group: 0
  Turbidity degree ++++ (severely opaque), number in group: 0
  Turbidity degree − (transparent), number in group: 1
STZ diabetic rats
  Opacity degree ++++, number in group: 1
  Opacity degree +++, number in group: 0
  Opacity degree ++, number in group: 2
  Opacity degree +, number in group: 0
  Opacity degree −, number in group: 2
  Percentage of opacity: 60.0%
  Percentage of severe opacity: 20.0%
[2]
  inner blood-retinal barrier function: improved
